Source: PubChem BioAssay AID1919003 (Molecular Pharmacology Branch, DTP, NCI, 2023)
pIC50: −log10 of the molar value. “And” between values parts separate entries of the source, which are not always exact repeats. Identical values can stand only once.

Test system: 786-0 complex spheroids with HUVEC/MSC, growth % test/control
Experiment: Anticancer human tumor 786-0 cell line growth inhibition [AhR];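 also: compound exposure lasted seven days before the read-out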
Conditions: for viability, T/C: stronger effect = lower value
Method in brief: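 Agents were dosed in half-log steps down from roughly clinical Cmax, or from 10 microM where Cmax was unknown, alone and with AhR antagonists. Read-out: percent test/control growth of tumor spheroids containing HUVEC and MSC stromal cells.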

[1] = curve of first compound, second compound 0.1 µM
[2] = curve of first compound, second compound 0.316 µM
[3] = curve of first compound, second compound 1 µM
[4] = curve of first compound, second compound 3.16 µM
[5] = curve of first compound, second compound 10 µM
[6] = second compound 0.1 µM, first compound 0.0316 µM
[7] = second compound 0.1 µM, first compound 0.1 µM
[8] = second compound 0.1 µM, first compound 0.316 µM
[9] = second compound 0.1 µM, first compound 1 µM
[10] = second compound 0.316 µM, first compound 0.0316 µM
[11] = second compound 0.316 µM, first compound 0.1 µM
[12] = second compound 0.316 µM, first compound 0.316 µM
[13] = second compound 0.316 µM, first compound 1 µM
[14] = second compound 1 µM, first compound 0.0316 µM
[15] = second compound 1 µM, first compound 0.1 µM
[16] = second compound 1 µM, first compound 0.316 µM
[17] = second compound 1 µM, first compound 1 µM
[18] = second compound 3.16 µM, first compound 0.0316 µM
[19] = second compound 3.16 µM, first compound 0.1 µM
[20] = second compound 3.16 µM, first compound 0.316 µM
[21] = second compound 3.16 µM, first compound 1 µM
[22] = second compound 10 µM, first compound 0.0316 µM
[23] = second compound 10 µM, first compound 0.1 µM
[24] = second compound 10 µM, first compound 0.316 µM
[25] = second compound 10 µM, first compound 1 µM
[26] = second compound 0.1 µM, first compound 3.16 µM
[27] = second compound 0.1 µM, first compound 10 µM
[28] = second compound 0.316 µM, first compound 3.16 µM
[29] = second compound 0.316 µM, first compound 10 µM
[30] = second compound 1 µM, first compound 3.16 µM
[31] = second compound 1 µM, first compound 10 µM
[32] = second compound 3.16 µM, first compound 3.16 µM
[33] = second compound 3.16 µM, first compound 10 µM
[34] = second compound 10 µM, first compound 3.16 µM
[35] = second compound 10 µM, first compound 10 µM

Nc1ncn(C2CC(O)C(CO)O2)c(=O)n1 (configuration not stated) + Cc1ccccc1N=Nc1ccc(NC(=O)c2ccnn2C)c(C)c1
pIC50 [1]: < 6.00
pIC50 [2]: < 6.00
pIC50 [3]: < 6.00
pIC50 [4]: < 6.00
pIC50 [5]: < 6.00
viability, T/C (second compound 0.1 µM, first compound 0.00316 µM): 103%
viability, T/C (second compound 0.1 µM, first compound 0.01 µM): 114%
viability, T/C [6]: 105%
viability, T/C [7]: 101%
viability, T/C [8]: 98.3%
viability, T/C [9]: 90.6%
viability, T/C (second compound 0.316 µM, first compound 0.00316 µM): 105%
viability, T/C (second compound 0.316 µM, first compound 0.01 µM): 104%
viability, T/C [10]: 106%
viability, T/C [11]: 99.5%
viability, T/C [12]: 96.6%
viability, T/C [13]: 92.9%
viability, T/C (second compound 1 µM, first compound 0.00316 µM): 106%
viability, T/C (second compound 1 µM, first compound 0.01 µM): 112%
viability, T/C [14]: 105%
viability, T/C [15]: 104%
viability, T/C [16]: 95.2%
viability, T/C [17]: 94.5%
viability, T/C (second compound 3.16 µM, first compound 0.00316 µM): 104%
viability, T/C (second compound 3.16 µM, first compound 0.01 µM): 102%
viability, T/C [18]: 100%
viability, T/C [19]: 94.9%
viability, T/C [20]: 92.8%
viability, T/C [21]: 89.7%
viability, T/C (second compound 10 µM, first compound 0.00316 µM): 93.4%
viability, T/C (second compound 10 µM, first compound 0.01 µM): 95.3%
viability, T/C [22]: 91.3%
viability, T/C [23]: 87.1%
viability, T/C [24]: 83.2%
viability, T/C [25]: 77.2%

Nc1ncn(C2CC(O)C(CO)S2)c(=O)n1 (configuration not stated)
viability, T/C (compound 0.000949 µM): 109% and 99.9% and 112%
viability, T/C (compound 0.003 µM): 103% and 94.9% and 105%
viability, T/C (compound 0.00949 µM): 99.4% and 94.5% and 98.6%
viability, T/C (compound 0.03 µM): 102% and 107% and 100%
viability, T/C (compound 0.0949 µM): 73.2% and 96.8% and 89%
viability, T/C (compound 0.3 µM): 63.7% and 75.5% and 63.9%
pIC50 (curve of compound): < 6.52

CCN(c1cc(-c2ccc(CN3CCOCC3)cc2)cc(C(=O)NCc2c(C)cc(C)[nH]c2=O)c1C)C1CCOCC1 + CC(CO)NC(=O)c1cc(-c2ccc(Cl)cc2)nn(-c2cnn(C)c2)c1=O
pIC50 [1]: < 5.52
pIC50 [2]: < 5.52
pIC50 [3]: < 5.52
pIC50 [4]: < 5.52
pIC50 [5]: < 5.52
viability, T/C (second compound 0.1 µM, first compound 0.00949 µM): 90.2%
viability, T/C (second compound 0.1 µM, first compound 0.03 µM): 101%
viability, T/C (second compound 0.1 µM, first compound 0.0949 µM): 93.5%
viability, T/C (second compound 0.1 µM, first compound 0.3 µM): 106%
viability, T/C (second compound 0.1 µM, first compound 0.949 µM): 98.7%
viability, T/C (second compound 0.1 µM, first compound 3 µM): 102%
viability, T/C (second compound 0.316 µM, first compound 0.00949 µM): 108%
viability, T/C (second compound 0.316 µM, first compound 0.03 µM): 107%
viability, T/C (second compound 0.316 µM, first compound 0.0949 µM): 103%
viability, T/C (second compound 0.316 µM, first compound 0.3 µM): 101%
viability, T/C (second compound 0.316 µM, first compound 0.949 µM): 103%
viability, T/C (second compound 0.316 µM, first compound 3 µM): 98.4%
viability, T/C (second compound 1 µM, first compound 0.00949 µM): 98.8%
viability, T/C (second compound 1 µM, first compound 0.03 µM): 102%
viability, T/C (second compound 1 µM, first compound 0.0949 µM): 101%
viability, T/C (second compound 1 µM, first compound 0.3 µM): 109%
viability, T/C (second compound 1 µM, first compound 0.949 µM): 110%
viability, T/C (second compound 1 µM, first compound 3 µM): 96.6%
viability, T/C (second compound 3.16 µM, first compound 0.00949 µM): 101%
viability, T/C (second compound 3.16 µM, first compound 0.03 µM): 97.5%
viability, T/C (second compound 3.16 µM, first compound 0.0949 µM): 106%
viability, T/C (second compound 3.16 µM, first compound 0.3 µM): 102%
viability, T/C (second compound 3.16 µM, first compound 0.949 µM): 112%
viability, T/C (second compound 3.16 µM, first compound 3 µM): 98.5%
viability, T/C (second compound 10 µM, first compound 0.00949 µM): 105%
viability, T/C (second compound 10 µM, first compound 0.03 µM): 110%
viability, T/C (second compound 10 µM, first compound 0.0949 µM): 102%
viability, T/C (second compound 10 µM, first compound 0.3 µM): 116%
viability, T/C (second compound 10 µM, first compound 0.949 µM): 116%
viability, T/C (second compound 10 µM, first compound 3 µM): 106%

COc1ccc([C@@H](O)c2cc(-c3ncnc4cc(N5CCOCC5)ccc34)c(F)cc2Cl)nn1 + Cc1ccccc1N=Nc1ccc(NC(=O)c2ccnn2C)c(C)c1
pIC50 [1]: < 5.00
pIC50 [2]: < 5.00
pIC50 [3]: < 5.00
pIC50 [4]: < 5.00
pIC50 [5]: 5.02
viability, T/C [6]: 90.6%
viability, T/C [7]: 96%
viability, T/C [8]: 99.4%
viability, T/C [9]: 102%
viability, T/C [26]: 102%
viability, T/C [27]: 79.9%
viability, T/C [10]: 97.6%
viability, T/C [11]: 102%
viability, T/C [12]: 99.2%
viability, T/C [13]: 100%
viability, T/C [28]: 106%
viability, T/C [29]: 87.1%
viability, T/C [14]: 86.4%
viability, T/C [15]: 93.3%
viability, T/C [16]: 96%
viability, T/C [17]: 105%
viability, T/C [30]: 97.1%
viability, T/C [31]: 77.4%
viability, T/C [18]: 84.8%
viability, T/C [19]: 87.1%
viability, T/C [20]: 82.9%
viability, T/C [21]: 84.1%
viability, T/C [32]: 89.3%
viability, T/C [33]: 63.9%
viability, T/C [22]: 96.9%
viability, T/C [23]: 90.2%
viability, T/C [24]: 81.9%
viability, T/C [25]: 86.1%
viability, T/C [34]: 72.8%
viability, T/C [35]: 48.2%

COc1cc(C2c3cc4c(cc3C(OC3OC5COC(C)OC5C(O)C3O)C3COC(=O)C23)OCO4)cc(OC)c1O (configuration not stated) + Cc1ccccc1N=Nc1ccc(NC(=O)c2ccnn2C)c(C)c1
pIC50 [1]: 6.03
pIC50 [2]: 6.06
pIC50 [3]: 5.97
pIC50 [4]: 6.05
pIC50 [5]: 6.14
viability, T/C [6]: 110%
viability, T/C [7]: 110%
viability, T/C [8]: 85.2%
viability, T/C [9]: 46.2%
viability, T/C [26]: 24.2%
viability, T/C [27]: 9.45%
viability, T/C [10]: 110%
viability, T/C [11]: 105%
viability, T/C [12]: 86.2%
viability, T/C [13]: 41.6%
viability, T/C [28]: 27.5%
viability, T/C [29]: 10.3%
viability, T/C [14]: 107%
viability, T/C [15]: 107%
viability, T/C [16]: 81.4%
viability, T/C [17]: 50.4%
viability, T/C [30]: 26.8%
viability, T/C [31]: 10.3%
viability, T/C [18]: 103%
viability, T/C [19]: 82.9%
viability, T/C [20]: 78%
viability, T/C [21]: 46.4%
viability, T/C [32]: 21.1%
viability, T/C [33]: 7.16%
viability, T/C [22]: 96.8%
viability, T/C [23]: 91.7%
viability, T/C [24]: 68.4%
viability, T/C [25]: 42.6%
viability, T/C [34]: 19.4%
viability, T/C [35]: 7%

Nc1ccn(C2OC(CO)C(O)C2(F)F)c(=O)n1 (configuration not stated) + Cc1cncc(-c2nc(NCCc3c[nH]c4ccccc34)c3ncn(C(C)C)c3n2)c1
pIC50 [1]: > 7.50
pIC50 [2]: > 7.50
pIC50 [3]: > 7.50
pIC50 [4]: > 7.50
pIC50 [5]: > 7.50
viability, T/C [6]: 6.61%
viability, T/C [7]: 6.32%
viability, T/C [8]: 4.8%
viability, T/C [9]: 5.2%
viability, T/C [26]: 8.48%
viability, T/C [27]: 7.97%
viability, T/C [10]: 7.89%
viability, T/C [11]: 7.93%
viability, T/C [12]: 6.11%
viability, T/C [13]: 6.04%
viability, T/C [28]: 7.74%
viability, T/C [29]: 6.69%
viability, T/C [14]: 6.44%
viability, T/C [15]: 6.22%
viability, T/C [16]: 6.31%
viability, T/C [17]: 5.01%
viability, T/C [30]: 6.11%
viability, T/C [31]: 5.37%
viability, T/C [18]: 2.07%
viability, T/C [19]: 1.87%
viability, T/C [20]: 3.18%
viability, T/C [21]: 1.68%
viability, T/C [32]: 3.27%
viability, T/C [33]: 7.69%
viability, T/C [22]: 0.4%
viability, T/C [23]: 0.29%
viability, T/C [24]: 0.24%
viability, T/C [25]: 0.33%
viability, T/C [34]: 0.61%
viability, T/C [35]: 0.37%
